Counter-ions that a name gives are not always drawn. Like-named read-outs stand apart in the source and are kept apart here.
Molecular target: T1, human cloned 5-HT6 receptors (Homo sapiens, UniProt P50406)
T1 construct: expressed in transfected cells; host or cells: HeLa cells expressing the cloned 5-HT6 receptor (washed membranes)
Experiment: Cyclase assay (cAMP production in washed membranes of HeLa 5HT6 cells, 5-HT stimulated)
Type: biochemical
Protocol: Compounds of the invention may be tested for in vitro biological activity in accordance with the following cyclase assay:
0.5 μl of test compound in 100% dimethylsulfoxide (DMSO) was added to a white, solid 384 well assay plate (for dose response measurements the top of the concentration range is 7.5 μM final). 10 μl of washed membranes of HeLa 5HT6 cells (for preparation see WO 98/27081) in basic buffer (50 mM HEPES pH 7.4 (KOH), 10 mM MgCl2, 100 mM NaCl, 1 μl/ml 3-isobutyl-1-methylxanthine (IBMX) (Sigma-Aldrich)) was added to all wells followed by 10 μl 2×ATP buffer (100 μl/ml ATP and 1 μl/ml 3-Isobutyl-1-methylxanthine (IBMX) (Sigma-Aldrich)) with 5-HT (at a concentration equivalent to a dose response of 4×EC50). The resultant mixture was then incubated at room temperature for 30-45 minutes to allow cAMP production.
cAMP production was then measured using the DiscoveRx™ HitHunter™ chemiluminescence cAMP assay kit (DiscoveRx Corporation, 42501 Albrae Street, Fremont, Calif. 94538; Product Code: 90-0004L) or any other suitable cAMP measurement assay.
IC50 values were estimated from arbitrary designated unit (ADU) measurements from a Perkin Elmer Viewlux instrument using a four parameter logistic curve fit within EXCEL (Bowen, W. P. and Jerman, J. C. (1995), Nonlinear regression using spreadsheets. Trends in Pharmacol. Sci., 16, 413-417). Functional Ki values were calculated using the method of Cheng, Y. C. and Prussof, W. H. (Biochemical Pharmacol (1973) 22 3099-3108). pIC50 and fpKi are the negative log10 of the molar IC50 and functional Ki respectively.

[1] = membranes of HeLa 5HT6 cells, 5-HT at 4×EC50, functional Ki calculated by Cheng-Prusoff from IC50, read-out: fpKi (functional pKi, antagonist potency for the 5-HT6 receptor) (converted)

T1 sequence (P50406 whole entry): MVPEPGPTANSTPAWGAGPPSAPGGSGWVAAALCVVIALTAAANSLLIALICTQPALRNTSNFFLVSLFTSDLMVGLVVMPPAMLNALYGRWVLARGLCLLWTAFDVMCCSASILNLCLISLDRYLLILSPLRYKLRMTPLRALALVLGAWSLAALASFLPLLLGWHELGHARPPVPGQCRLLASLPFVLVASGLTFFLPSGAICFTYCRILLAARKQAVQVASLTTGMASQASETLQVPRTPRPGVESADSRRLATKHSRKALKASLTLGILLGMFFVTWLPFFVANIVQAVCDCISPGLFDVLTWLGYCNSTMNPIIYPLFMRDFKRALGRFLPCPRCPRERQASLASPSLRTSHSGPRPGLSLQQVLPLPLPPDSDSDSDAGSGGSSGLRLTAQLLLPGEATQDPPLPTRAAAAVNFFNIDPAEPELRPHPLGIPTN

Row | Structure (SMILES) | Ki [1] | Ki
1 | O=S(=O)(c1ccccc1)c1cnc2c(OCC3CC4CCN3CC4)cccc2c1 (stereo not drawn) [Example E22, 8-[(1-Azabicyclo[2.2.2]oct-2-ylmethyl)oxy]-3-(phenylsulfonyl) quinoline, hydrochloride] | – | < 10 nM
2 | CN1CC[C@@H](Oc2cccc3cc(S(=O)(=O)c4ccccc4)cnc23)C1 [Example E17, 8-[[(3R)-1-Methyl-3-pyrrolidinyl]oxy}-3-(phenylsulfonyl) quinoline, hydrochloride] | < 10 nM | –
3 | CC(Oc1cccc2cc(S(=O)(=O)c3ccccc3)cnc12)C(C)N(C)C (stereo not drawn) [Example E6, Dimethyl(1-methyl-2-{[(3-(phenylsulfonyl)-8-quinolinyl]oxy}propyl)amine, hydrochloride] | < 10 nM | –
4 | CN1CCCC(Oc2cccc3cc(S(=O)(=O)c4ccccc4)cnc23)C1 (stereo not drawn) [Example E23, 8-[(1-Methyl-3-piperidinyl)oxy]-3-(phenylsulfonyl) quinoline, hydrochloride] | < 10 nM | –
5 | CN(C)CCOc1cccc2cc(S(=O)(=O)c3ccccc3)cnc12 [Example E1b, [2-(3-Phenylsulfonylquinoline-8-yloxy)ethyl]dimethylamine, hydrochloride] | < 10 nM | –
6 | O=S(=O)(c1ccccc1)c1cnc2c(OCCN3CCCC3)cccc2c1 [Example E4, 3-(Phenylsulfonyl)-8-{[2-(1-pyrrolidinyl)ethyl]oxy}quinoline, hydrochloride] | < 10 nM | –

Further lines, with some results ahead:

Row | Ki [1] | Structure (SMILES) | Ki
7 | < 10 nM | O=S(=O)(c1ccccc1)c1cnc2c(O[C@@H]3CCNC3)cccc2c1 [Example E5, 3-(Phenylsulfonyl)-8-[(3R)-3-pyrrolidinyloxy]quinoline, hydrochloride] | –
8 | < 10 nM | O=S(=O)(c1ccccc1)c1cnc2c(OC[C@H]3CCCN3)cccc2c1 [Example E7, 3-(Phenylsulfonyl)-8-{[(2R)-2-pyrrolidinylmethyl]oxy}quinoline, hydrochloride] | –
9 | < 10 nM | O=S(=O)(c1ccccc1)c1cnc2c(OC[C@@H]3CCCN3)cccc2c1 [Example E3, 3-(Phenylsulfonyl)-8-{[(2S)-2-pyrrolidinylmethyl]oxy}quinoline, hydrochloride] | –
10 | < 10 nM | CN1CCC[C@H]1COc1cccc2cc(S(=O)(=O)c3ccccc3)cnc12 [Example E2b, 8-({[(2S)-1-Methyl-2-pyrrolidinyl]methyl}oxy)-3-(phenylsulfonyl) quinoline, hydrochloride] | –
11 | < 10 nM | O=S(=O)(c1ccccc1)c1cnc2c(OC3CCCNC3)cccc2c1 (stereo not drawn) [Example E15, 3-(Phenylsulfonyl)-8-(3-piperidinyloxy) quinoline, hydrochloride] | –
12 | < 10 nM | O=S(=O)(c1ccccc1)c1cnc2c(OCC3COCCN3)cccc2c1 (stereo not drawn) [Example E24, 8-[(3-Morpholinylmethyl)oxy]-3-(phenylsulfonyl) quinoline, hydrochloride] | –
